Literature values in patent publication US20120201914A1, “Method and Composition for Improving Animal Oral Health” (priority 2011, published 2012).

Test system: various oral pathogens, such as S. mutans, C. albicans, A. actinomycetemcomitans, F. nucleatum, and P. gingivalis
Details: against various oral pathogens; recent studies

| Structure (SMILES) | antibacterial activity |
| --- | --- |
| CC/C=C\C/C=C\C/C=C\CCCCCCCC(=O)O [ALA, α-linolenic acid] | antibacterial activities |
| CC/C=C\C/C=C\C/C=C\C/C=C\C/C=C\C/C=C\CCC(=O)OC [DHA-ME] | antibacterial activities |
| CC/C=C\C/C=C\C/C=C\C/C=C\C/C=C\CCCC(=O)OC [EPA-ME] | antibacterial activities |
| CC/C=C\C/C=C\C/C=C\C/C=C\C/C=C\C/C=C\CCC(=O)OCC [DHA-EE] | antibacterial activities |
| CC/C=C\C/C=C\C/C=C\CCCCCCCC(=O)OCC [ALA-EE] | antibacterial activities |
| CC/C=C\C/C=C\C/C=C\C/C=C\C/C=C\CCCC(=O)OCC [EPA-EE] | antibacterial activities |
| CC/C=C\C/C=C\C/C=C\CCCCCCCC(=O)OC [ALA-ME] | antibacterial activities |
